Experiment [1] has as its system seasonal allergic rhinitis. The conditions noted are these: oral, 2600 mg to 5200 mg per day; cited from earlier work.
A further experiment deals with murine macrophages. As to conditions: in vitro; cited from earlier work.
For a further experiment, the system named is osteoarthritis. The conditions noted are these: literature study; cited from earlier work.
The subject of a further experiment is Solar Keratosis. The experiment can be described thus: Summary of treatments: Solar Keratosis. Format: in vivo, human. More on the design: key: The + values in the table represent a qualitative assessment of the treatment of symptoms in the patient groups tests; ++: The + values in the table represent a qualitative assessment of the treatment of symptoms in the patient groups tests; +++: The + values in the table represent a qualitative assessment of the treatment of symptoms in the patient groups tests; ++++: The + values in the table represent a qualitative assessment of the treatment of symptoms in the patient groups tests; +++++: 5+ indicating the greatest improvement in symptoms. The conditions noted are these: patient groups.

A further experiment relates to psoriasis. Description: Summary of treatments: Psoriasis. Format: in vivo, human. Also on record: key: The + values in the table represent a qualitative assessment of the treatment of symptoms in the patient groups tests; ++: The + values in the table represent a qualitative assessment of the treatment of symptoms in the patient groups tests; +++: The + values in the table represent a qualitative assessment of the treatment of symptoms in the patient groups tests; ++++: The + values in the table represent a qualitative assessment of the treatment of symptoms in the patient groups tests; +++++: 5+ indicating the greatest improvement in symptoms. As to conditions: patient groups.

In the next experiment the test system is TNF-α production. As to conditions: in vitro; cited from earlier work.
The test system of the next experiment is chondrocytes. The conditions noted are these: in vitro; cited from earlier work.

The text below walks through data of US9387218B2, “Composition for the treatment of inflammatory and immune disorders” (EAGLEPHARMA PTY LTD, priority 2012, dated 2016).

`CS(C)(=O)=O` [MSM, Methylsulphonylmethane]: the “symptoms associated with seasonal allergic rhinitis” value in experiment [1] is reported as “may reduce symptoms”. Also, the “effect in murine macrophages (release of pro-inflammatory cytokines)” value in the experiment on murine macrophages was “anti-inflammatory effect”. Further, the effect in osteoarthritis result in the experiment with osteoarthritis is “analgesic and anti-inflammatory effect”.
For `NC(=O)c1cccnc1` [Nicotinamide oral (NC), nicotinamide], the “qualitative assessment of the treatment of symptoms: Solar Keratosis” value with Solar Keratosis is reported as “+”. Moreover, the “qualitative assessment of the treatment of symptoms: Psoriasis” value in the experiment on psoriasis is listed as “+”.
Regarding `NCC(=O)O` [glycine], in the experiment with TNF-α production, the “immunomodulatory action, possibly by inhibiting TNF-α production” value is reported as “immunomodulatory action”.
On to `N[C@H]1C(O)O[C@H](CO)[C@@H](O)[C@@H]1O` (some centres unmarked) [glucosamine], for which the “synthesis of proinflammatory mediators in chondrocytes” value in the experiment with chondrocytes is “inhibits the synthesis of proinflammatory mediators”. In the experiment with osteoarthritis, the effect in osteoarthritis result is recorded as “may improve the symptoms”.
